In US8299059B2, “Crystalline compound and a process for its preparation” (Eli Lilly and Company, priority 2009, dated 2012):

Columns and labels:
Type in all cases: physicochemical
[1] = Determination of particle flowability (Schulze shear cell tester); settings: flow factor coefficient, pre-consolidation pressure 2000 Pa
Procedure: Particle flowability is characterized using a Schulze shear cell tester with a pre-consolidation pressure of 2000 Pa. The powder sample is contained in an annular shear cell. A vertically acting force is applied to the lid of the flow cell allowing an adjustable normal stress to be applied. The shear cell is slowly rotated and the torque necessary to prevent the cover from rotating is recorded. The measured shear stress that is recorded is the shear stress required for the powder to move or flow against itself. From a plot of the shear stress versus normal force, the flowability or FFC is determined

[2] = Determination of specific surface area (BET isotherm, nitrogen)
Procedure: Specific surface area is determined from BET isotherm measurements using nitrogen as the absorbed gas.

[3] = Determination of particle size distribution by laser diffraction; settings: for x10 / x90: cumulative volume distribution (undersized); for x50: median particle size
Procedure: Laser diffraction particle size analysis is employed to determine the x10, x50 and x90 values. The procedure uses Fraunhofer laser diffraction theory to calculate the particle size distribution. The analysis is performed with a Malvern Mastersizer 2000 equipped with a Hydro 2000S wet module. A filtered (0.22 μm) solution composed of 0.35% (v/v) sorbitan monooleate (SPAN® 80) in hexanes and saturated with semagacestat is used as the dispersant. The parameters used in the analysis are as follows: sample refractive index—1.555, sample absorption—0.1, dispersant refractive index—1.37, result calculation model—General purpose, normal sensitivity, sample measurement time—12 seconds, background measurement time—12 seconds, and stirrer/pump speed—2700 rpm. A dry sample is added to the Hydro 2000S wet module with sonication on at 100%, until the obscuration is between 10 and 20%. The sample is sonicated for 12 s and stirred for a total of 2 min (including sonication) prior to the analysis. Two separate assays are typically run; the average values are reported.

FFC [1] | SSA [2] [m^2/g] | x10 [3] [μm] | x90 [3] [μm] | x50 [3] [μm] | Structure (SMILES)
3.8 | 0.4 | 14 | 128 | 59 | CC(C)[C@H](O)C(=O)N[C@@H](C)C(=O)N[C@@H]1C(=O)N(C)CCc2ccccc21 [Example 1, Crystalline (2S)-2-hydroxy-3-methyl-N-[(1S)-1-methyl-2-oxo-2-[[(1S)-2,3,4,5-tetrahydro-3-methyl-2-oxo-1H-3-benzazepin-1-yl]amino]ethyl]-butanamide anhydrate Form II]
2.0 | 1.1 | 3.5 | 54 | 17 | CC(C)[C@H](O)C(=O)N[C@@H](C)C(=O)N[C@@H]1C(=O)N(C)CCc2ccccc21 [Method 2, Crystalline (2S)-2-hydroxy-3-methyl-N-[(1S)-1-methyl-2-oxo-2-[[(1S)-2,3,4,5-tetrahydro-3-methyl-2-oxo-1H-3-benzazepin-1-yl]amino]ethyl]-butanamide anhydrate Form II]
